# Tested on: p53 protein
# Test: X-ray irradiation-induced p53 protein expression in ES cells, western blotting
# Format: cell-based, mouse
# Settings: X-ray irradiated, western blotting with antibody against p53
# Experimental: The analysis was done by western blotting.
# ES cell lines in which one or both Cds1 (Chk2) alleles were inactivated (Cds1 (Chk2)+/− and Cds1 (Chk2)−/−) were treated with trypsin and counted. Then, a constant number of ES cells were plated in 6-well plates in which feeder cells had been planted in advance. MEF (mouse embryonic fibroblast) was used as feeder cells. The cells were treated with X ray and cultured in an CO2 incubator for 6 hours. Then, a cell extract was prepared, the proteins were separated by SDS-PAGE, and transferred to a PVDF membrane. p53 protein was quantified by conducting western blotting using an antibody against p53.
structure (smiles),measurement,setting,value
Cn1c(=O)c2c(ncn2C)n(C)c1=O [caffeine],induction of p53 expression after irradiation,Cds1-/- ES cells,inhibited
same,induction of p53 expression after irradiation,wild type ES cells,inhibited

# From patent US20030226158A1, “Cds1 knockout cells and mice, and their utilization” (priority 2000, published 2003)
